Assay results from ChEMBL document CHEMBL3627687, “Sesquiterpenes from Carpesium macrocephalum inhibit Candida albicans biofilm formation and dimorphism” (Bioorg Med Chem Lett, 2015).
≈ marks a conversion by molar mass, not a printed value.

How the values were obtained:
Candida albicans [1] = assay: Antifungal activity against Candida albicans SC5314 assessed as inhibition of biofilm formation by XTT assay; assay type: functional, organism-based
Candida albicans [2] = assay: Antifungal activity against Candida albicans SC5314 assessed as inhibition of yeast cell to hyphae transition after 4 hrs by microscopic analysis; assay type: functional, organism-based; conditions: SC5314, 4 h
Candida albicans [3] = assay: Antifungal activity against Candida albicans SC5314 by CLSI standard M27-A3 method; assay type: functional

| Structure (SMILES) | IC50 (Candida albicans [1]) [mg/L] | IC50 (Candida albicans [2]) [mg/L] | MIC50 (Candida albicans [3]) [mg/L] |
| --- | --- | --- | --- |
| C=C1C(=O)O[C@H]2C[C@H](C)[C@@H]3CC[C@@]4(C)O[C@@]34C[C@H]12 | 38 (≈ 153 µM) | 106 (≈ 429 µM) | – |
| C=C1C(=O)O[C@@H]2C[C@H](C)C(CCC(C)O)=CC[C@H]12 (stereo not given in full) | > 128 | > 128 | – |
| C=C1C(=O)O[C@@H]2C[C@@]3(C)CCC[C@H](C)[C@@]34O[C@H]4[C@H]12 | > 128 | 118 (≈ 477 µM) | – |
| C=C1C(=O)O[C@@H]2C[C@]3(C)[C@@H](CCC(C)=O)[C@@H]3C[C@H]12 | > 128 | 100 (≈ 403 µM) | – |
| C=C1C(=O)O[C@@H]2C[C@H](C)C(CCC(C)OC(=O)C(C)CC)=CC[C@H]12 (stereo not given in full) | > 128 | 105 (≈ 314 µM) | – |
| C=C(C(=O)O)[C@@H]1CC[C@@]2(C)CCC=C(C)C2C1 (stereo not given in full) | > 128 | > 128 | – |
| OC(Cn1cncn1)(Cn1cncn1)c1ccc(F)cc1F [FLUCONAZOLE] | 2 (≈ 6.53 µM) | – | – |
| C=C1C(=O)O[C@@H]2C[C@@]3(C)C[C@@H](O)CC(=C)[C@@H]3C[C@H]12 [IVALIN] | 15.4 (≈ 62 µM) | > 128 | – |
| C=C1C(=O)O[C@@H]2C[C@@]3(C)CCCC(=C)[C@]3(O)C[C@H]12 [TELEKIN] | 36 (≈ 145 µM) | > 128 | – |
| C=C1C(=O)O[C@@H]2C[C@H](C)C(CCC(C)=O)=CC[C@H]12 [TOMENTOSIN] | > 128 | 31.6 (≈ 127 µM) | 128 (≈ 515 µM) |
